Measured values from publication PMC12777510 (Chempluschem, 2025).
≈ marks a conversion by molar mass, not a printed value. *1 amine or outer side, *2 acyl side, *3 side chain or, on linkers, in order; H or OH if unused. Where a SMILES comes first, the peptide text is derived from it. [ ]: non-standard residue; d: D form. X1 = O=C(C[C@@H](CCCCCCCCCCC(F)(F)F)N[*:1])[*:2]

Settings: 19F NMR samples in D2O containing Saboraud Dextrose Broth (30 g/L), 5% d6-DMSO added to avoid precipitation

NC(=O)CC[C@@H]1NC(=O)[C@@H](CC(N)=O)NC(=O)[C@@H](Cc2ccc(O)cc2)NC(=O)[C@H](CC(N)=O)NC(=O)C[C@@H](CCCCCCCCCCC(F)(F)F)NC(=O)[C@H](CO)NC(=O)[C@@H](CC(N)=O)NC(=O)[C@@H]2CCCN2C1=O [Compound 9, ω‐CF3 iturin A2] (cyclo(N[dY][dN]QP[dN]S[X1]))
aqueous solubility: 100 µM (≈ 110 µg/mL)
